According to ChEMBL document CHEMBL1201862, “PubChem BioAssay data set” (2004):
Calls of active or inactive are those of the source.

Target: T1, Heat shock factor protein 1 (Mus musculus, UniProt P38532)
T1 sequence (P38532 whole entry): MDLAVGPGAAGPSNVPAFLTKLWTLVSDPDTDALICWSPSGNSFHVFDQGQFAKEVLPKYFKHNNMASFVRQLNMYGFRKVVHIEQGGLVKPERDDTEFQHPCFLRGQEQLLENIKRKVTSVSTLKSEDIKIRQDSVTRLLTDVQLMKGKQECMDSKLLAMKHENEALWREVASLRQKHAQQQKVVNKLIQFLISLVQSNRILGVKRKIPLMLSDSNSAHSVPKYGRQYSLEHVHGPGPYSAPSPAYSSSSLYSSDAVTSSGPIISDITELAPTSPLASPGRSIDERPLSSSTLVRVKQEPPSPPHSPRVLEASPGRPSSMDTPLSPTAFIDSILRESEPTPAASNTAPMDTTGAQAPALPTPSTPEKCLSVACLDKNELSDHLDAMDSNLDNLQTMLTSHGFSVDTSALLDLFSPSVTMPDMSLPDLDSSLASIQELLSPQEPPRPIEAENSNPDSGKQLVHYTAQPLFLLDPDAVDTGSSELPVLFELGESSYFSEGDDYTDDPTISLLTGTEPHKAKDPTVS
Test: inhibition of MG132-induced HSE-luciferase signal, confirmation, cell-based, NIH3T3, luminescence, dose retest (AID 2382);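 also: NIH3T3 fibroblasts with HSF1-driven luciferase reporter stressed by proteasome inhibitor MG132; luminescence from HSF1-driven luciferase expression after 8 hours of MG132 stress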
Format: functional
Details: not given

SMILES	EC50
CCOC(=O)C1(CC2CCCCO2)CCN(Cc2nc3ccccc3[nH]2)CC1 (configuration not stated)	> 195 µM (not active)
CC(C)N1CCC(N2CCN(C3CCCC3)CC2CCO)CC1 (configuration not stated)	> 195 µM (not active)
CC(=O)Nc1ccc(NC(=O)CSc2cn(CC(=O)N3CCOCC3)c3ccccc23)cc1	> 195 µM (not active)
O=C(NCc1ccccc1)[C@]1(C(F)(F)F)C[C@H](CCc2ccccc2)CCCO1	> 195 µM (not active)
Cc1nc([N+](=O)[O-])cn1-c1ccc(N)cc1	> 195 µM (not active)
CCN(C(=O)c1ccc2c(SCC(=O)O)c3c(nc2c1)CCC3)c1cc(Cl)ccc1OC	> 195 µM (not active)
Cc1cccc(C)c1NC(=O)CN1C(=O)NC(C)(CCc2ccccc2)C1=O (configuration not stated)	> 195 µM (not active)
CC(=O)c1cnn(-c2c(Cl)cc(Cl)cc2Cl)c1C	> 195 µM (not active)
Cc1ccccc1NC(=O)COC(=O)c1ccc(S(C)(=O)=O)c([N+](=O)[O-])c1	6.14 µM (active)
CCN(CC)S(=O)(=O)c1cccc(-c2nnc(SCC(N)=O)n2CCc2ccccc2)c1	> 195 µM (not active)
N#C/C(=C/c1cc(Br)cs1)C(=O)NCC1CCCO1 (configuration not stated)	> 195 µM (not active)
O=C(O)c1ccn(Cn2cnc3ccccc32)n1	> 195 µM (not active)
O=C(Cn1[nH]c(=O)c2ccccc2c1=O)OCC(=O)c1ccccc1Cl	> 195 µM (not active)
Cc1ccc(OC(=O)c2ccc3nc(C)sc3c2)cc1	0.737 µM (active)

Target: T1, Heat shock factor protein 1
Test: HSF1 potentiators in luciferase reporter cells, confirmation, cell-based, NIH3T3, luminescence, dose retest (AID 435004);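 also: stress induced by proteasome inhibitor MG132 added 30 min after compound; luciferase reporter driven by HSF1 response element in NIH3T3 cells; actives raise luminescence as potentiators of the MG132 stress response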
Format: functional
Details: not given

SMILES	EC50
COC(=O)c1ccccc1N=C(S)N(Cc1ccc2c(c1)OCO2)Cc1cc2ccc(OC)cc2nc1O	> 260 µM (inactive)
CC(=O)c1ccccc1NC(=O)C1C2CCC(O2)C1C(=O)O (configuration not stated)	> 260 µM (inactive)
CCOc1cccc(C2NCc3ccccc3-n3cccc32)c1O (configuration not stated)	> 260 µM (inactive)
O=C(CSCc1ccc(Br)cc1)N1CCCC1	108 µM (active)
COCCN(CCOC)c1nc(-c2ccc(C)cc2)nc2ccccc12	> 260 µM (inactive)
O=C(NCc1cc(C(F)(F)F)cc(C(F)(F)F)c1)C1CC(c2cccc([N+](=O)[O-])c2)=NO1 (configuration not stated)	38.4 µM (active)
C=CCn1c(=O)c2c3c(sc2n2c(Nc4ccccc4)nnc12)CCCC3	> 260 µM (inactive)
O=[N+]([O-])c1cccc(-c2ncc3ccccn23)c1	> 260 µM (inactive)
Cc1ccccc1N1CCN(S(=O)(=O)Cc2ccccc2)CC1	> 260 µM (inactive)
CC12CCC3C(CC=C4CC(O)CCC43C)C1C/C(=C\N1CCCC1)C2=O (configuration not stated)	> 260 µM (inactive)
OCC1(CCCc2ccccc2)CCN(C2CCSCC2)CC1	> 260 µM (inactive)
O=C(CN1C(=O)NC2(CCCc3ccccc32)C1=O)Nc1cccc(S(=O)(=O)N2CCCCC2)c1 (configuration not stated)	> 260 µM (inactive)

Target: Cytochrome P450 2C19 (Homo sapiens, UniProt P33261)
Sequence (P33261 whole entry): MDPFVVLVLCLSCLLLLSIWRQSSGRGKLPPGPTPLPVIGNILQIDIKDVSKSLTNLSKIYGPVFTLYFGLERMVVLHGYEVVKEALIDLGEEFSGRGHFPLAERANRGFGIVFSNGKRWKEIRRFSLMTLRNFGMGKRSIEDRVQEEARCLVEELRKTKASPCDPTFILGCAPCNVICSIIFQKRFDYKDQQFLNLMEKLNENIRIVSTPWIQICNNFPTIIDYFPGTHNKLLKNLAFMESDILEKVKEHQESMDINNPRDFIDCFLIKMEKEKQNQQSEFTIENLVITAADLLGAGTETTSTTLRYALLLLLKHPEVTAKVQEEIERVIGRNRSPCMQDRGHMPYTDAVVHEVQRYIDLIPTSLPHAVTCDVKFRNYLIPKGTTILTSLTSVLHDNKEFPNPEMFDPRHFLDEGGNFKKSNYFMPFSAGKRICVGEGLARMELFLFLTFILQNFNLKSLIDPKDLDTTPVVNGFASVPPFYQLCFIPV
Test: Cytochrome panel assay with activity outcomes. Panel member name: p450-cyp2c19 Compounds with AC50 equal or less than 10 uM are considered active
Format: functional
Details: read-out: AC50

SMILES	AC50
Cc1cnn(CCC(=O)NN=C(S)Nc2cccc(Cl)c2)c1	39.8 µM (inconclusive)
Cc1ccc2nc(-c3cccnc3)oc2c1	28.2 µM (inconclusive)
CCn1c(COc2ccccc2)nnc1SCC(=O)c1cccc([N+](=O)[O-])c1	39.8 µM (inconclusive)
CCc1c2c(nc3c(C(C)C)cccc13)-c1cccc(=O)n1C2	20 µM (inconclusive)

Target: T2, Corticotropin-releasing factor receptor 2/Corticotropin-releasing factor-binding protein (Homo sapiens, UniProt P24387+Q13324)
T2 sequence (Q13324 whole entry): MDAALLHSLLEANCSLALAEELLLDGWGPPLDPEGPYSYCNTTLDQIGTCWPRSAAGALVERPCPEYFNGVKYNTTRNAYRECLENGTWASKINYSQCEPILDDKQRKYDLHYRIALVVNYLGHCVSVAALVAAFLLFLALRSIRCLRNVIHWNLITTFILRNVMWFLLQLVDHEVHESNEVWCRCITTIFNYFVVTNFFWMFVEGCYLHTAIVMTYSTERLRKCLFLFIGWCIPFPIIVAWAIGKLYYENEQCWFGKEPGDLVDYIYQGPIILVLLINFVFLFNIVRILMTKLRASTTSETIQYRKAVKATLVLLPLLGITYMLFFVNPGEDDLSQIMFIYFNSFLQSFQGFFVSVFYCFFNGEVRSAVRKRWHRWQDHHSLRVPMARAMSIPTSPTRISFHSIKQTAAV
T2 sequence (P24387 whole entry): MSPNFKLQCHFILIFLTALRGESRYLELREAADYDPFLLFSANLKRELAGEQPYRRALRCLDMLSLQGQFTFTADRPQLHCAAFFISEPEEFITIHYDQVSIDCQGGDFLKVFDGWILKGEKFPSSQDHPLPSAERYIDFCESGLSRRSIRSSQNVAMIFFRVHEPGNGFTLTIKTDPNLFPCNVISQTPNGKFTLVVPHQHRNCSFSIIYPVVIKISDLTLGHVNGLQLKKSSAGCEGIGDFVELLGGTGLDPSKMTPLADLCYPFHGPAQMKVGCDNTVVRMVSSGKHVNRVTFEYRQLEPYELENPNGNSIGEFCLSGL
Test: activators of CRF receptor 2 with binding protein – uHTS hits, confirmation (AID 602473)
Format: functional
Details: read-out: EC50_Mean

SMILES	EC50
Cc1c(N=C2N=C(NC(=O)c3ccc(F)cc3)c3ccccc32)c(=O)n(-c2ccccc2)n1C	15.6 µM (active)
Cn1c(N)c(-c2ccccc2)c2ccc([N+](=O)[O-])cc2c1=O	4.5 µM (active)

Target: Paired box protein Pax-8 (Homo sapiens, UniProt Q06710)
Sequence (Q06710 whole entry): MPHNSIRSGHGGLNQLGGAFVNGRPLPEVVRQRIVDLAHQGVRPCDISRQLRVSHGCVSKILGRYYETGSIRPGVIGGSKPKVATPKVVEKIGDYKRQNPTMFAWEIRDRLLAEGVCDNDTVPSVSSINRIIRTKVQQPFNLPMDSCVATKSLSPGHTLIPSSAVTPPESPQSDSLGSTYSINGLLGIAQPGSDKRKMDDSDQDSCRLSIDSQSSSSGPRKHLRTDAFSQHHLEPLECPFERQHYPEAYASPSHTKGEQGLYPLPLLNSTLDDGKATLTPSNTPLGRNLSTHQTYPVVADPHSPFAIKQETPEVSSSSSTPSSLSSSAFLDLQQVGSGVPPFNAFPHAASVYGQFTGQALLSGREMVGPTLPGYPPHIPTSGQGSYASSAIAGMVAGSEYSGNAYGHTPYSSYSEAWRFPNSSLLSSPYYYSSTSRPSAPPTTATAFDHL
Test: inhibitors of PAX8-driven TPO luciferase reporter, dose response, RMG-I cells, cherry-pick (AID 687027);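 also: luciferase reporter driven by Pax8 target thyroperoxidase promoter measured by SteadyGlo luminescence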
Format: functional, cell-based
Details: not given

SMILES	AC50
C[C@@H]1CN([C@H](C)CO)C(=O)Cc2cc(NC(=O)Nc3ccc(F)cc3)ccc2O[C@H]1CN(C)C(=O)Nc1ccc(C(F)(F)F)cc1	11.4 µM (active)
O=C(Cc1ccccn1)N1CCCCN2[C@@H](CO)[C@@H](c3ccc(-c4ccc(F)cc4)cc3)[C@@H]2C1	22.6 µM (active)
CC(C)(C)OC(=O)NCCCC[C@H](NC(=O)c1[nH]cnc1C(=O)N[C@@H](Cc1ccccc1)C(=O)OC(C)(C)C)C(=O)OC(C)(C)C	7.6 µM (active)
COc1cc(CNc2ncnc3c2ncn3[C@H]2CN(Cc3ccc(-c4ccccc4)cc3)C[C@@H](CO)O2)cc(OC)c1OC	7.36 µM (active)
COc1cc(/C=N\NC(=O)c2ccc(-c3ccccc3)cc2)cc(OC)c1OC(C)=O	0.728 µM (active)

Target: Cytochrome P450 2D6 (Homo sapiens, UniProt P10635);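 also: CYP2D6 member of a cytochrome P450 panel assay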
Sequence (P10635 whole entry): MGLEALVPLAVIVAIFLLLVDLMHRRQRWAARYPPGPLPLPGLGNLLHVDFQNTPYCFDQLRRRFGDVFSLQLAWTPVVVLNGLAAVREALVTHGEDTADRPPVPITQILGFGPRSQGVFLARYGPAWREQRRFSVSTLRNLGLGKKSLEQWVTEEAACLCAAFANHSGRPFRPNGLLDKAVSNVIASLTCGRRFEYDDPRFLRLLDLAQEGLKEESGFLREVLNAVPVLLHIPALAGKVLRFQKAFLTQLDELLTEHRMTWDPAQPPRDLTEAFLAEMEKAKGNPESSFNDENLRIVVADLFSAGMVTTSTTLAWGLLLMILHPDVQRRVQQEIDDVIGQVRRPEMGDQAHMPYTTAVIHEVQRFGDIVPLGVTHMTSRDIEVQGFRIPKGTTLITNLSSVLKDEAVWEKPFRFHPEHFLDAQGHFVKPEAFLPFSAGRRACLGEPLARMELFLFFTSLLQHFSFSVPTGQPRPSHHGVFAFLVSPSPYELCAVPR
Details: not given

SMILES	AC50
CS(=O)(=O)Nc1cccc(-c2cncnc2NCc2cccnc2)c1	39.8 µM (inconclusive)
Cc1ccc(N(C(=O)Cn2nnc(-c3ccc(F)cc3)n2)C(CC(C)C)C(=O)NCC2CCCO2)cc1 (configuration not stated)	25.1 µM (inconclusive)
Cc1ccc2nc(-c3cccnc3)oc2c1	5.62 µM (inconclusive)
Cn1cccc1C(=O)N1CCC[C@@]2(CCN(Cc3ccc(C#N)cc3)C2)C1	20 µM (inconclusive)
Cc1nc2c(C(=O)N3CCOCC3)cnn2c(C)c1Cc1ccc(Cl)cc1	25.1 µM (inconclusive)
N#CCSc1nc2ccc(N3CCCCC3)cc2c(=O)n1Cc1ccccc1	5.62 µM (inconclusive)
O[C@]1(c2ccccc2)c2ccccc2N=C2NCCN21	2.51 µM (inconclusive)
CCCCC(=O)Nc1ccc(C)c(O)c1	17.8 µM (inconclusive)
CCCn1nc(C(=O)NCC(C)(C)N2CCOCC2)c2ccccc2c1=O	3.98 µM (inconclusive)
COCCNc1ccnc(-c2ccccc2CN(C)C)n1	39.8 µM (inconclusive)
CCc1c2c(nc3c(C(C)C)cccc13)-c1cccc(=O)n1C2	39.8 µM (inconclusive)

Target: T3, Cytochrome P450 1A2 (Homo sapiens, UniProt P05177);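 also: PubChem cytochrome P450 panel assay, CYP1A2 panel member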
T3 sequence (P05177 whole entry): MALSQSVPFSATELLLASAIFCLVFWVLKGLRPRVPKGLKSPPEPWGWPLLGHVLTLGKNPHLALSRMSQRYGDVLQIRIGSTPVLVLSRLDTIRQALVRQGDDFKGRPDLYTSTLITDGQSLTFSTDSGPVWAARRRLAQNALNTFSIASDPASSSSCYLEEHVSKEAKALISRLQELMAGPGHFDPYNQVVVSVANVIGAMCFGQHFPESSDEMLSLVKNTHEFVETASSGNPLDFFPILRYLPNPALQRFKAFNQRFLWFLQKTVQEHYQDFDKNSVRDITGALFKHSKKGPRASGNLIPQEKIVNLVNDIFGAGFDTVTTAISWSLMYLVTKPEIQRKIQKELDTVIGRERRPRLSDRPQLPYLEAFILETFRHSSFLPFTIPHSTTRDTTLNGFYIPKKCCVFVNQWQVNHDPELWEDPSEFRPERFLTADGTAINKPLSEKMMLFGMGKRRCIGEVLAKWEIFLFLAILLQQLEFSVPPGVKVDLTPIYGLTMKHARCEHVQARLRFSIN
Details: not given

SMILES	AC50
Cc1cnn(CCC(=O)NN=C(S)Nc2cccc(Cl)c2)c1	15.8 µM (inconclusive)
O=C(/C=C\c1ccc(O)c(O)c1)O[C@@H](Cc1ccc(O)c(O)c1)C(=O)O	25.1 µM (inconclusive)
CC[C@@](O)(C(=O)O)c1cc2n(c(=O)c1CO)Cc1cc3ccccc3nc1-2	3.16 µM (inconclusive)
N#CCCn1c(=O)c(-c2cccc(C#N)c2)nc2cnc(N3CCOCC3)nc21	15.8 µM (inconclusive)
COc1ccc(NC(=S)Nc2ccccc2)cc1	1.26 µM (inconclusive)
N#Cc1ccc(CN2CC[C@@]3(CCCN(S(=O)(=O)c4ccccc4)C3)C2)cc1	15.8 µM (inconclusive)
Cc1onc(O)c1CC[C@H](N)C(=O)O	39.8 µM (inconclusive)
CCn1c(COc2ccccc2)nnc1SCC(=O)c1cccc([N+](=O)[O-])c1	28.2 µM (inconclusive)
Nc1nc(N)c(/N=N\c2ccc([As](=O)(O)O)c(O)c2)c(N)n1	6.31 µM (inconclusive)
O=C(Nc1ccccc1)N1CC2(CCN(C(=O)c3cnccn3)CC2)C1	20 µM (inconclusive)
CC1(C)C(=O)C(c2ccccc2)=C2CN3C(=O)N(CCc4ccccc4)C(=O)C3(Cc3ccc(F)cc3)C=C21 (configuration not stated)	15.8 µM (inconclusive)
NC1(C(=O)O)CC(C(=O)O)C1 (configuration not stated)	39.8 µM (inconclusive)

Target: Cytochrome P450 3A4 (Homo sapiens, UniProt P08684);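 also: CYP3A4 tested as one member of a cytochrome P450 panel screen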
Sequence (P08684 whole entry): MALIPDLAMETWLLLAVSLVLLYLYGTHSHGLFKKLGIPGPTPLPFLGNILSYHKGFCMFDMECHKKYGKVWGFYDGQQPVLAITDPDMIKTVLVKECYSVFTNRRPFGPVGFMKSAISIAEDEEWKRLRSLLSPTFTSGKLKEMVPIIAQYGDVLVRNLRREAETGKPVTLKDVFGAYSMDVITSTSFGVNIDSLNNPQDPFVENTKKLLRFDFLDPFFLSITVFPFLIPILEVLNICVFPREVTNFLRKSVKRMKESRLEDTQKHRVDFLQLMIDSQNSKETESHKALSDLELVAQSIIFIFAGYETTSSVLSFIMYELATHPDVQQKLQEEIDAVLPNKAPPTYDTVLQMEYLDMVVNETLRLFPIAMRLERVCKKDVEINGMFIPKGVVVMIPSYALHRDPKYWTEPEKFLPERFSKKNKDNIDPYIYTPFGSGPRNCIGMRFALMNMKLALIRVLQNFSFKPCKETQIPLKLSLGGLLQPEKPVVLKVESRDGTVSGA
Details: not given

SMILES	AC50
CC[C@@](O)(C(=O)O)c1cc2n(c(=O)c1CO)Cc1cc3ccccc3nc1-2	3.16 µM (inconclusive)
N#CCCn1c(=O)c(-c2cccc(C#N)c2)nc2cnc(N3CCOCC3)nc21	15.8 µM (inconclusive)

Target: Cytochrome P450 2C9 (Homo sapiens, UniProt P11712)
Sequence (P11712 whole entry): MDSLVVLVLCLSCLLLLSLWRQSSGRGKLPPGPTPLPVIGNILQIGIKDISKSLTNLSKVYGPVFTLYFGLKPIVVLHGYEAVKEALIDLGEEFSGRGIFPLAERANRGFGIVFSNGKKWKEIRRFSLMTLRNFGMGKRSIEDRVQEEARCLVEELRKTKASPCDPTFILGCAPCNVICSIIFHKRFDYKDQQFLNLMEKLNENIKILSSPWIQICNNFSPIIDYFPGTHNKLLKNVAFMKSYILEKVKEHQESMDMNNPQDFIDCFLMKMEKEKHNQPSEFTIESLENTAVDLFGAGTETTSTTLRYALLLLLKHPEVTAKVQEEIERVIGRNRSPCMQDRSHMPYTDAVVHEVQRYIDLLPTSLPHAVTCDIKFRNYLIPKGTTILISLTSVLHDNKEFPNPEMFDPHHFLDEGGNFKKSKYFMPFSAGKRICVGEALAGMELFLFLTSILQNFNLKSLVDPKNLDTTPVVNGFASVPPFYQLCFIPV
Details: not given

SMILES	AC50
Cc1cnn(CCC(=O)NN=C(S)Nc2cccc(Cl)c2)c1	15.8 µM (inconclusive)
N#CCSc1nc2ccc(N3CCCCC3)cc2c(=O)n1Cc1ccccc1	4.47 µM (inconclusive)
CCCCC(=O)Nc1ccc(C)c(O)c1	14.1 µM (inconclusive)
CC1(C)C(=O)C(c2ccccc2)=C2CN3C(=O)N(CCc4ccccc4)C(=O)C3(Cc3ccc(F)cc3)C=C21 (configuration not stated)	10 µM (inconclusive)
CCCn1nc(C(=O)NCC(C)(C)N2CCOCC2)c2ccccc2c1=O	39.8 µM (inconclusive)
